Measurements reported in patent US20200199102A1, “COMPOUNDS THAT PARTICIPATE IN COOPERATIVE BINDING AND USES THEREOF” (Revolution Medicines, Inc., priority 2017, published 2020).
Read-outs that look alike come from different tables or passages of the source.

Experiments:
FKBP12 [1] = target: T1, FKBP12 (Homo sapiens, UniProt P62942); experiment: AlphaLISA inhibition of binding of biotinylated FK506 to FLAG tagged FKBP12; design: made in house; settings: read-out: Binding affinity to FKBP12 (by displacement of FK506)
Description: The binding of compounds of the invention to FKBP12 can be determined using the following protocol.
This protocol utilizes Perkin Elmers AlphaLISA technology platform to detect FKBP binders by measuring the inhibition of binding of biotinylated FK506 to FLAG tagged FKBP12.
10×TBST Buffer (Boston BioProducts IBB-181), Biotinylated FK506 (in-house), FLAG tagged FKBP (in-house); anti-FLAG Donor beads (PerkinElmer AS103) and Streptavidin Acceptor beads (PerkinElmer AL125); Compounds in DMSO (in-house), FK506.
Add 20 uL of 12.5 nM FKBP-FLAG working stock to each well of the 96-well plate. Add 1 uL of test compound (100% DMSO) to each well of the plate using the Janus MTD head and P20 tips (except control wells). Add 1 uL of DMSO to negative control wells and 1 uL of 50 uM FK506 solution to positive control wells. In the dark, add 20 uL of combined Donor/Acceptor beads to each well. Incubate in the dark for 30 minutes at room temperature. In the dark, add 10 uL of 5 nM biotinylated FK506 working stock to each well. Incubate in the dark for 60 minutes at room temperature. Protect plate from light until reading on Biotek Synergy2 Plate Reader; Alphalisa 96-well protocol (680 excitation/615 emission).

CEP250 [2] = target: T2, CEP250 (Homo sapiens, UniProt P62942+Q9BV73); experiment: Crystal structure analysis of FKBP12-compound-CEP250 ternary complexes; settings: FKBP12-compound-CEP250 crystal structure
T2 construct: CEP25011.4 (residues 2134-2231) (in-house); made in house
Procedure: This protocol describes the crystallization and structure determination method for structures of FKBP12-Compound 2-CEP250 and FKBP12-F11-CEP250 ternary complexes.
A 3:1 molar excess of FKBP12-F2 or FKBP12-F11 binary complex is added to CEP25011.4 and incubated at 4° C. overnight to complete ternary complex formation. Pure ternary complex is isolated by gel filtration purification on a Superdex 200 column in 12.5 mM HEPES pH 7.4, 75 mM NaCl. Purified complex (at 10-20 mg/ml) is subjected to crystallization at 22° C. using sitting drop vapor diffusion. FKBP12-F2-CEP250 crystals grow in a well solution containing 0.2 M sodium malonate, 0.1 M HEPES 7.0, 21% PEG 3350. FKBP12-F11-CEP250 crystals grow in a well solution containing 0.1 M Tris pH 8.5, 0.2 M trimethylamine N-oxide, 22-24% PEG2000 MME. For data collection crystals are transferred to a solution containing mother liquor supplemented with 20-25% glycerol, and then frozen in liquid nitrogen. Diffraction datasets are collected at the Advanced Photon Source (APS) and processed with the HKL program. Molecular replacement solutions are obtained using the program PHASER in the CCP4 suite, using the published structure of FKBP12 (PDB-ID 1FKD) as a search model. Subsequent model building and refinement are performed according to standard protocols with the software packages CCP4 and COOT.

FKBP12 [3] = target: T1, FKBP12; experiment: SPR binding of compound (analyte) to immobilized FKBP12
Procedure: This protocol utilizes Surface Plasmon Resonance (SPR) as a method to determine kinetics (KD, Ka, Kd) for the binding of compound (analyte) to immobilized FKBP12 (ligand).
Compound in 100% DMSO (in-house), 10×HBS-P+ buffer (GE Healthcare BR-1006-71), Assay buffer (1×HBS-P+ buffer, 1% DMSO), 12×HIS tagged FKBP12 (in-house).
Experiments are performed at 25° C. Stock solution of 12×HIS tagged FKBP12 is diluted to 100 nM in assay buffer (1% DMSO final). Approximately 500-600 RU of FKBP12 is immobilized on one of two flow cells of an activated NTA chip. The second flow cell is not activated as a reference for non-specific interaction of the analyte to the sensor chip. Various concentrations of compound (1 nM-1 μM range), serially diluted into the same assay buffer (1% DMSO final), are injected onto the FKBP12 surface and reference surface at a flow rate of 10 μl/min. The surface is regenerated between analyte injections with 350 mM EDTA.
The BiaEvaluation software program is used for data fitting. All data is reference subtracted against both the reference flow cell and a buffer injection. For kinetic analyses, data is locally fit to a 1:1 interaction model.
Experiments are performed at 25° C. Stock solution of 12×HIS tagged FKBP12 is diluted to 100 nM in assay buffer (1% DMSO final). Approximately 500-600 RU of FKBP12 is immobilized on one of two flow cells of an activated NTA chip. The second flow cell is not activated as a reference for non-specific interaction of the analyte to the sensor chip.

CEP250 [4] = target: T3, CEP250 (Homo sapiens, UniProt Q9BV73); experiment: ITC binding of FKBP12-compound binary complexes to CEP250; settings: FKBP12 10 μM + ligand 20 μM in cell, 298 K; for Kd: calculated from Ka = 1/Kd
T3 construct: CEP25011.4 (residues 2134-2231) (in-house); made in house

HeLa-FKBP12 cells = experiment: Biosensor cell permeability assay (FKBP destabilizing mutant), HeLa-FKBP12 cells; type: cell-based; settings: 72 hrs
Procedure: (§1) Cell permeability of compounds can be determined using the following protocol.
(§2) This protocol utilizes a modified FKBP or cyclophilin destabilizing mutant to determine the bioactivity of FKBP binding compounds or cyclophilin binding compounds in whole cell assay.
(§3) DMEM, DMEM without Phenol Red, 10% FBS, 1× Sodium Pyruvate, 1× Glutamax. Add 125 μl of media with compound per well.
(§4) Plate HeLa-FKBP12 cells (for FKBP binding compounds) or HeLa-CyclophilinA cells (for cyclophilin binding compounds) and seed overnight at 5 k/well (approximately ˜18 hrs.). Using a multi-channel pipet, take out the old media and add ˜125 ul of new media with compounds. Compounds are diluted using DMEM without Phenol Red, 10% FBS, 1× Sodium Pyruvate, 1× Glutamax. Add 125 μL of media with compound per well. Cells are treated with compounds at concentration: 30, 10, 3.33, 1.11, 0.37, 0.12, 0.04 and 0.013 uM. Time points are taken at 72 hrs and plate read using plate reader with excitation/emission: 575/620.
(§5) Cell binding/permeability is calculated in fold-change (Total RFU of treated samples/total RFU of DMSO treated samples or total RFU above background (Total RFU minus total RFU of DMSO treated samples).

Cyclophilin A = target: T4, Cyclophilin A (Homo sapiens, UniProt P62937); experiment: AlphaLISA inhibition of binding of biotinylated Cyclosporin A to FLAG tagged Cyclophilin A; settings: for % signal: AlphaLISA signal; for % signal / % inhibition of CsA binding to Cyclophilin A: test concentration not given; for IC50: read-out: IC50 value of CsA binding to Cyclophilin A
T4 construct: made in house
Summary of the method: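 Inhibition of biotin-CsA binding to FLAG-tagged Cyclophilin A read by AlphaLISA (ex 680, em 615 nm). Working stocks were 6 nM biotinylated CsA and 25 nM FLAG-CypA; beads and compound were combined first for 30 min, then protein added for 60 min, all at room temperature in the dark, with DMSO and cyclosporin A controls.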

HeLa-CyclophilinA cells = experiment: Biosensor cell permeability assay (cyclophilin destabilizing mutant), HeLa-CyclophilinA cells; type: cell-based; settings: 72 hrs
Procedure: as §1, §2, §3, §4, §5

[5] = read-out: SPR affinity to FKBP12: KD, 25° C., Table 7

T2 sequence (Q9BV73 2134-2231): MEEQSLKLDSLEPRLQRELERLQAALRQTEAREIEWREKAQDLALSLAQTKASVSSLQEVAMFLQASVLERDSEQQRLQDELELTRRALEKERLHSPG
T2 sequence (P62942 whole entry, the tested form may be a part): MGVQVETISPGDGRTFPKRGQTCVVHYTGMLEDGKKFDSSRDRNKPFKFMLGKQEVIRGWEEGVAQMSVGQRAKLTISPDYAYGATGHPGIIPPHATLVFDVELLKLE
T1 sequence (P62942 whole entry, species assumed): as the sequence (P62942 whole entry, the tested form may be a part) above
T4 sequence (P62937 whole entry, species assumed): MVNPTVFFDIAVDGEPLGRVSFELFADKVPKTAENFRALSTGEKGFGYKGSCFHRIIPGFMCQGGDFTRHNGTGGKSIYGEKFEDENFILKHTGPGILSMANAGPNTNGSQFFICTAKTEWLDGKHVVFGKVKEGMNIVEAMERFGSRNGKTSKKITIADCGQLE

IC50 (FKBP12 [1]) | % signal (Cyclophilin A) | IC50 (Cyclophilin A) | % inhibition of CsA binding to Cyclophilin A (Cyclophilin A) | IC50 (HeLa-CyclophilinA cells) | SMILES | also measured
0.51 nM |  |  |  |  | CC[C@H](Cc1ccccc1)[C@@H]1CCCCCC[C@@H](C)[C@H](O)[C@@H](C)[C@@H]2CC[C@@H](C)C(=O)C(O)(O2)C(=O)N2CCCC[C@H]2C(=O)O1 [Compound F11, (2S)-1-((4R,7S)-7-((2R,3S,4R,11S,12R)-12-benzyl-3,11-dihydroxy-4-methyltetradecan-2-yl)-2-hydroxy-4-methyl-3-oxooxepane-2-carbonyl)piperidine-2-carboxylic acid C-11 Lactone] | buried surface area of CEP250 contributed by FKBP12 (CEP250 [2]): 590 Å^2; total buried surface area of CEP250 (CEP250 [2]): 831 Å^2; total buried surface area of the ternary complex (CEP250 [2]): 1648 Å^2; Kd (FKBP12 [3]; KD, Example 10, 25° C., 1:1 interaction model): 15.6 nM; Kd (FKBP12 [3]; SPR affinity to FKBP12: KD, 25° C., Table 7): 21.5 nM; ΔG (CEP250 [4]; CEP25011.4 68 μM in syringe): −40.36 kJ*mol −mol−1; ΔH (CEP250 [4]; CEP25011.4 68 μM in syringe): −47.78 kJ*mol −mol−1; −T*ΔS (CEP250 [4]; CEP25011.4 68 μM in syringe): 7.41 kJ*mol −mol−1; Kd (CEP250 [4]; CEP25011.4 68 μM in syringe): 80 nM; ΔG (CEP250 [4]; CEP25029.4 118 μM in syringe): −36.74 kJ*mol −mol−1; ΔH (CEP250 [4]; CEP25029.4 118 μM in syringe): −58.48 kJ*mol −mol−1; −T*ΔS (CEP250 [4]; CEP25029.4 118 μM in syringe): 21.73 kJ*mol −mol−1; Kd (CEP250 [4]; CEP25029.4 118 μM in syringe): 360 nM
36.3 nM |  |  |  |  | CC1=CC2=CC(O)C(C=C2)OC(=O)C2CCCCN2C(=O)C(=O)C2(O)OC(CCC2C)C(C)C(O)C=CC(C)CCC(O)C(C)=CC(C)C1 (stereo not drawn) [Compound F12] | Kd (FKBP12 [3]; [5]): 21.2 nM; IC50 (HeLa-FKBP12 cells): > 1000 nM
4690 nM |  |  |  |  | CC(=CC1C=CC(O)C(O)C1)C=C(C)C1CC(O)CC1C(C)(O)C=CC(O)CC=CCC(C)C1OC(O)(CC(=O)N2CCCCC2C(=O)O)C(C)CC1C (stereo not drawn) [Compound F23] | IC50 (HeLa-FKBP12 cells): > 1000 nM
355 nM |  |  |  |  | CCC(Cc1ccccc1)C1C=CCC=CCC(C)C(O)C(C)C2CCC(C)C(O)(CC(=O)N3CCCCC3C(=O)O1)O2 (stereo not drawn) [Compound F1] | Kd (FKBP12 [3]; [5]): 71.5 nM

Second part, the compound before the results:

SMILES | IC50 (FKBP12 [1]) | % signal (Cyclophilin A) | IC50 (Cyclophilin A) | % inhibition of CsA binding to Cyclophilin A (Cyclophilin A) | IC50 (HeLa-CyclophilinA cells) | also measured
C/C=C/C[C@@H](C)[C@@H](O)[C@H]1C(=O)N[C@@H](CC)C(=O)N(C)CC(=O)N(C)[C@@H]([C@@H](C)CC)C(=O)N[C@@H](C(C)C)C(=O)N(C)[C@@H](CC(C)C)C(=O)N[C@@H](C)C(=O)N[C@H](C)C(=O)N(C)[C@@H](CC(C)C)C(=O)N(C)[C@@H](CC(C)C)C(=O)N(C)[C@@H](C(C)C)C(=O)N1C [Compound C33] |  | −0.08% | < 2000 nM | 100.08% | < 3000 nM | 
C/C=C/C[C@@H](C)[C@@H](O)[C@H]1C(=O)N[C@@H](CC)C(=O)N(C)CC(=O)N(C)[C@@H](Cc2ccc(O)cc2)C(=O)N[C@@H](C(C)C)C(=O)N(C)[C@@H](CC(C)C)C(=O)N[C@@H](C)C(=O)N[C@H](C)C(=O)N(C)[C@@H](CC(C)C)C(=O)N(C)[C@@H](CC(C)C)C(=O)N(C)[C@@H](C(C)C)C(=O)N1C [Compound C39] |  | 3.78% | < 2000 nM | 96.22% | < 3000 nM | 
C/C=C/C[C@@H](C)[C@@H](O)[C@H]1C(=O)N[C@@H](CC)C(=O)N(C)CC(=O)N(C)[C@@H]([C@@H](C)O)C(=O)N[C@@H](C(C)C)C(=O)N(C)[C@@H](CC(C)C)C(=O)N[C@@H](C)C(=O)N[C@H](C)C(=O)N(C)[C@@H](CC(C)C)C(=O)N(C)[C@@H](CC(C)C)C(=O)N(C)[C@@H](C(C)C)C(=O)N1C [Compound C38] |  | 1.57% | < 2000 nM | 98.43% | < 3000 nM | 
C/C=C/C[C@@H](C)[C@@H](O)[C@H]1C(=O)N[C@@H](CC)C(=O)N(C)CC(=O)N(C)[C@@H](CCCC)C(=O)N[C@@H](C(C)C)C(=O)N(C)[C@@H](CC(C)C)C(=O)N[C@@H](C)C(=O)N[C@H](C)C(=O)N(C)[C@@H](CC(C)C)C(=O)N(C)[C@@H](CC(C)C)C(=O)N(C)[C@@H](C(C)C)C(=O)N1C [Compound C43] |  | 0.29% | < 2000 nM | 99.71% | < 3000 nM | 
C/C=C/C[C@@H](C)[C@@H](O)[C@H]1C(=O)N[C@@H](CC)C(=O)N(C)CC(=O)N(C)[C@H](C)C(=O)N[C@@H](C(C)C)C(=O)N(C)[C@@H](CC(C)C)C(=O)N[C@@H](C)C(=O)N[C@H](C)C(=O)N(C)[C@@H](CC(C)C)C(=O)N(C)[C@@H](CC(C)C)C(=O)N(C)[C@@H](C(C)C)C(=O)N1C [Compound C35] |  | 0.89% | < 2000 nM | 99.11% | > 3000 nM | 
C/C=C/C[C@@H](C)[C@@H](O)[C@H]1C(=O)N[C@@H](CC)C(=O)N(C)CC(=O)N(C)[C@@H](CCC)C(=O)N[C@@H](C(C)C)C(=O)N(C)[C@@H](CC(C)C)C(=O)N[C@@H](C)C(=O)N[C@H](C)C(=O)N(C)[C@@H](CC(C)C)C(=O)N(C)[C@@H](CC(C)C)C(=O)N(C)[C@@H](C(C)C)C(=O)N1C [Compound C44] |  | −0.07% | < 2000 nM | 100.07% | < 3000 nM | 
C/C=C/C[C@@H](C)[C@@H](O)[C@H]1C(=O)N[C@@H](CC)C(=O)N(C)CC(=O)N(C)[C@@H](C)C(=O)N[C@@H](C(C)C)C(=O)N(C)[C@@H](CC(C)C)C(=O)N[C@@H](C)C(=O)N[C@H](C)C(=O)N(C)[C@@H](CC(C)C)C(=O)N(C)[C@@H](CC(C)C)C(=O)N(C)[C@@H](C(C)C)C(=O)N1C [Compound C34] |  | −0.01% | < 2000 nM | 100.01% | < 3000 nM | 
C/C=C/C[C@@H](C)[C@@H](O)[C@H]1C(=O)N[C@@H](CC)C(=O)N(C)CC(=O)N(C)CC(=O)N[C@@H](C(C)C)C(=O)N(C)[C@@H](CC(C)C)C(=O)N[C@@H](C)C(=O)N[C@H](C)C(=O)N(C)[C@@H](CC(C)C)C(=O)N(C)[C@@H](CC(C)C)C(=O)N(C)[C@@H](C(C)C)C(=O)N1C [Compound C37] |  | 1.56% | < 2000 nM | 98.44% | > 3000 nM | 
C/C=C/C[C@@H](C)[C@@H](O)[C@H]1C(=O)N[C@@H](CC)C(=O)N(C)CC(=O)N(C)[C@H](C(C)C)C(=O)N[C@@H](C(C)C)C(=O)N(C)[C@@H](CC(C)C)C(=O)N[C@@H](C)C(=O)N[C@H](C)C(=O)N(C)[C@@H](CC(C)C)C(=O)N(C)[C@@H](CC(C)C)C(=O)N(C)[C@@H](C(C)C)C(=O)N1C [Compound C42] |  | 1.26% | < 2000 nM | 98.74% | > 3000 nM | 
